Data taken from patent US20150307520A1, “NOVEL HETEROARYL AND HETEROCYCLE COMPOUNDS, COMPOSITIONS AND METHODS THEREOF” (HUTCHISON MEDIPHARMA LIMITED, priority 2012, published 2015).
pIC50: −log10 of the molar value.

How the values were obtained:
Format in all cases: biochemical
p110β/p85α = p110β/p85α (Homo sapiens, UniProt P42338); test: Transcreener KINASE Assay, kinase inhibition of p110β/p85α; settings: for PI3Kβ IH % @ 1 uM: 1 uM test compound; for pIC50: read-out: PI3Kβ IC50
Method in brief: (§1)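 ADP production was read by fluorescence polarization immunoassay (60 min detection step) after an 80 min room-temperature reaction of p110/p85α enzyme, compound in 2% DMSO, and PIP2/ATP solution (30 uM/10 uM as added) in HEPES buffer with MgCl2 and DTT. IC50s came from inhibition versus the DMSO control.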

p110γ = p110γ (Homo sapiens, UniProt P48736); test: Transcreener KINASE Assay, kinase inhibition of p110γ; settings: for PI3Kγ IH % @ 1 uM: 1 uM test compound; for pIC50: read-out: PI3Kγ IC50
Method in brief: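 Recombinant PI3K isoform complexes were tested in a two-step endpoint ADP-detection assay. Kinase reaction ran 80 min at room temperature, followed by 60 min with ADP detection mix. Far-red competitive fluorescence polarization immunoassay read-out; IC50s fitted from the FP data.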

p110δ/p85α = p110δ/p85α (Homo sapiens, UniProt O00329); test: Transcreener KINASE Assay, kinase inhibition of p110δ/p85α; settings: for PI3Kδ IH % @ 1 uM: 1 uM test compound; for pIC50: read-out: PI3Kδ IC50
Method in brief: as §1

p110γ, sequence (P48736 whole entry, canonical isoform): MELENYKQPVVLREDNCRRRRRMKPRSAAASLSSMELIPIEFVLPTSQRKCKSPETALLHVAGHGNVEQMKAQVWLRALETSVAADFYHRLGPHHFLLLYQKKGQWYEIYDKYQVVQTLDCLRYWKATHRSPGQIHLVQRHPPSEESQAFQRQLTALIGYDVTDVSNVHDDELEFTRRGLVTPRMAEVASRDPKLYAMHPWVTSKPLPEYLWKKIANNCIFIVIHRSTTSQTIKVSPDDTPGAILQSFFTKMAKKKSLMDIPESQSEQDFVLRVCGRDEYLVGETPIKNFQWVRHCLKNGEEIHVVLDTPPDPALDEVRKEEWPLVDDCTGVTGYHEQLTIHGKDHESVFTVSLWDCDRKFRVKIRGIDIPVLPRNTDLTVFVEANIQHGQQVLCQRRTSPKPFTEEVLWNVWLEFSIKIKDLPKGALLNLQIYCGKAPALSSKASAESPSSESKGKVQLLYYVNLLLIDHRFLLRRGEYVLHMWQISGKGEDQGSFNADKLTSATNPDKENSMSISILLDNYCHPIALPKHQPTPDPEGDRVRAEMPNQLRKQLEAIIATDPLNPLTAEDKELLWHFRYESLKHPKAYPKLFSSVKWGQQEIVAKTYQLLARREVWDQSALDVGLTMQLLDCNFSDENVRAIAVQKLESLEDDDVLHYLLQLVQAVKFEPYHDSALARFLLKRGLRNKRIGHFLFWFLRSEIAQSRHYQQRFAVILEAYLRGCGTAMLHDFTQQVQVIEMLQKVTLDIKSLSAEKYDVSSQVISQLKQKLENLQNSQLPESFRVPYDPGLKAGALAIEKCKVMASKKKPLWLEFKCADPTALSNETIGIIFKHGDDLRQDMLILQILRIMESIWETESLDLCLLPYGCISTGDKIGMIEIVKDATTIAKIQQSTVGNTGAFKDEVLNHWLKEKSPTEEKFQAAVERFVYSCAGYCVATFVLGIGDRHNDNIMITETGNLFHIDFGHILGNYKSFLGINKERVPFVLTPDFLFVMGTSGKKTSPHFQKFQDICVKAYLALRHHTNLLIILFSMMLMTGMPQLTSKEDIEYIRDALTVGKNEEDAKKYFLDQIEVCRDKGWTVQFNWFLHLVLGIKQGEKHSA
p110δ/p85α, sequence (O00329 whole entry): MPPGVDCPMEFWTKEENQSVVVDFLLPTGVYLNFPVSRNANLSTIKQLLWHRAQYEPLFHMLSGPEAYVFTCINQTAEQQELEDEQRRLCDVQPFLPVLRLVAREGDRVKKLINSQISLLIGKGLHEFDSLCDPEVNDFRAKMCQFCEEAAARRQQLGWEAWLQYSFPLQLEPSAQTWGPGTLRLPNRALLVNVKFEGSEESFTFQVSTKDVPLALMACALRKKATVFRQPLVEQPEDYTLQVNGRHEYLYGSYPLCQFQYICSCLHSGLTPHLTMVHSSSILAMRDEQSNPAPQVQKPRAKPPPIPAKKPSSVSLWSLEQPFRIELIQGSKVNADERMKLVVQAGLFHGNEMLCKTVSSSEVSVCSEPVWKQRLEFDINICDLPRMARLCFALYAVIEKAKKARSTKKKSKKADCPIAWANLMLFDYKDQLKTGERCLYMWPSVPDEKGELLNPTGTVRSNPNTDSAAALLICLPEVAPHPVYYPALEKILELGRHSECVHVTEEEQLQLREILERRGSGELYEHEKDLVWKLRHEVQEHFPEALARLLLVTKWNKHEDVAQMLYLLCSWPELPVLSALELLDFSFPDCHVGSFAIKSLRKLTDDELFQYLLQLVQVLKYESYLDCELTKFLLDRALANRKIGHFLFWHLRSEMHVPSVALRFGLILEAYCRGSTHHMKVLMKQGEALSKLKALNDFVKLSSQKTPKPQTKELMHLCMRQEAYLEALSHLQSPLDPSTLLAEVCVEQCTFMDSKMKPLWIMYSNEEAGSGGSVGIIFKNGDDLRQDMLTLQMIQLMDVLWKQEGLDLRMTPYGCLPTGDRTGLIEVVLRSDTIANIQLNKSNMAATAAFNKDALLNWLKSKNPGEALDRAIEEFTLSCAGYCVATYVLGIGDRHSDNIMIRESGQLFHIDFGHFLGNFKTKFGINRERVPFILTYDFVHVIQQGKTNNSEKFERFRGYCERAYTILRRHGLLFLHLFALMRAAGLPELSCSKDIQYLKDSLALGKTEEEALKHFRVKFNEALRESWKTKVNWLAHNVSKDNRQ
p110δ/p85α, sequence (P27986 whole entry partner): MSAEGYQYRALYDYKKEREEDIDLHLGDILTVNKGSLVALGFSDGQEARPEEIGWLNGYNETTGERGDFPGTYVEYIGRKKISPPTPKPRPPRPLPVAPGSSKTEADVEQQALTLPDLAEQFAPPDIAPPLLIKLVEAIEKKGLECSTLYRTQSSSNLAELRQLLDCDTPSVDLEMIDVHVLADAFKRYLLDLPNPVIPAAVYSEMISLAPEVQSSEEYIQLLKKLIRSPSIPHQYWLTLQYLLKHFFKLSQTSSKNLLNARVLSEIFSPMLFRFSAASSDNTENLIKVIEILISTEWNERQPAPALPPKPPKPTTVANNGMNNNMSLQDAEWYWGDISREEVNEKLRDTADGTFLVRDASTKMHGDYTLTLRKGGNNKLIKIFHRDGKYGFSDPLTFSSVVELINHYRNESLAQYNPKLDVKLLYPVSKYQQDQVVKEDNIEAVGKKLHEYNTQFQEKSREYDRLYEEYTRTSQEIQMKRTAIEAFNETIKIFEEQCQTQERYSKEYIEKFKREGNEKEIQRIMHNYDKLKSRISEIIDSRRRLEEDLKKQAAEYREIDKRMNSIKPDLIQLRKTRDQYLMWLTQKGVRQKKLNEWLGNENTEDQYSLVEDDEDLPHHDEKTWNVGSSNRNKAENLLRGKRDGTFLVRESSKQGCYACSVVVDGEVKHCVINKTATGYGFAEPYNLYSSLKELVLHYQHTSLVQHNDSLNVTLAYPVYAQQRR
p110β/p85α, sequence (P42338 whole entry): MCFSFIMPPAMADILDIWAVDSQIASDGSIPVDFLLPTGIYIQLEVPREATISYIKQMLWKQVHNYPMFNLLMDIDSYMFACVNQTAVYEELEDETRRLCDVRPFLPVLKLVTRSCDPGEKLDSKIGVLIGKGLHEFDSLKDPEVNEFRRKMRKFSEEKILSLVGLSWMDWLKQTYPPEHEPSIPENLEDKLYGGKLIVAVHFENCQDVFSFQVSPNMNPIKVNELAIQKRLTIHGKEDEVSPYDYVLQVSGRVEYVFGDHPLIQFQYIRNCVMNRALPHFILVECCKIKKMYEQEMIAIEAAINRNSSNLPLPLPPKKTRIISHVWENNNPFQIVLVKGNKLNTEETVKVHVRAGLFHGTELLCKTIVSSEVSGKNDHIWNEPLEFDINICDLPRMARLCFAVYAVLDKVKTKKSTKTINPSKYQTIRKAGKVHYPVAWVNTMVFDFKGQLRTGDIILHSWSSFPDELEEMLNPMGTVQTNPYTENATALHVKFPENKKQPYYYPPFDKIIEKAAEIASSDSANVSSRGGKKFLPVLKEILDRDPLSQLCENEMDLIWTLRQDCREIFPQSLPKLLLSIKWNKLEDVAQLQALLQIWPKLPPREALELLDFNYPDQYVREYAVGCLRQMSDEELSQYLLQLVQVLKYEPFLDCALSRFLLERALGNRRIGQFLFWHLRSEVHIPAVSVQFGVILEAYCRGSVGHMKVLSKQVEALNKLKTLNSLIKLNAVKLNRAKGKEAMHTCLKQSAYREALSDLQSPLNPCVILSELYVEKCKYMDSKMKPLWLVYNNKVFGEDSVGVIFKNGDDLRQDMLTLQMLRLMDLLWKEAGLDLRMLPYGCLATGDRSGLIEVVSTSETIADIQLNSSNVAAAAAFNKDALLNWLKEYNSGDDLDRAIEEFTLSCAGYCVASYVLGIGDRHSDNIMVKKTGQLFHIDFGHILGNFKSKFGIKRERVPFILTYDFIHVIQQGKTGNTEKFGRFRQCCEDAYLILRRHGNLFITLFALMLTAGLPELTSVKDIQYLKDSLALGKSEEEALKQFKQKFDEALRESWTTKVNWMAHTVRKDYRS
p110β/p85α, sequence (P27986 2-724 partner): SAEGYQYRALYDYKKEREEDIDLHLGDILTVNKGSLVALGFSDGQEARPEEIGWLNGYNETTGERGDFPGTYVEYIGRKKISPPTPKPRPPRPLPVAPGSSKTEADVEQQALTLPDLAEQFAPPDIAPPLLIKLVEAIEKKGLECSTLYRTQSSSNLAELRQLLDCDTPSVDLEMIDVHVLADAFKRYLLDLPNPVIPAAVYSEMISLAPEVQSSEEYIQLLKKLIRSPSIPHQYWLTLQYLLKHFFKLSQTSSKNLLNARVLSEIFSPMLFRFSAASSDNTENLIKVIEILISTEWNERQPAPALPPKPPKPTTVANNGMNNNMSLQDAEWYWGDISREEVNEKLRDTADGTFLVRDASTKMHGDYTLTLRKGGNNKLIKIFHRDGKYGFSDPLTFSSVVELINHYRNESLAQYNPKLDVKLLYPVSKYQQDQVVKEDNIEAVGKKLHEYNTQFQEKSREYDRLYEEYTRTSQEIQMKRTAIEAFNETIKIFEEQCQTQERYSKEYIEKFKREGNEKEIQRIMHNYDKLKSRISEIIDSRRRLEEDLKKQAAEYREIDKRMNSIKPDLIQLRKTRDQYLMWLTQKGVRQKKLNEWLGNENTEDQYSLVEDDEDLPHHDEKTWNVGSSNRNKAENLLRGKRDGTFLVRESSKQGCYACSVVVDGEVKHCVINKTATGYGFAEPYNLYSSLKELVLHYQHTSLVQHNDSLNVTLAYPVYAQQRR

SMILES | PI3Kβ IH % @ 1 uM (p110β/p85α) [%] | PI3Kγ IH % @ 1 uM (p110γ) [%] | pIC50 (p110γ) | PI3Kδ IH % @ 1 uM (p110δ/p85α) [%] | pIC50 (p110δ/p85α) | pIC50 (p110β/p85α)
C[S@+]([O-])c1c[nH]c2ncnc(N3C[C@@H](C#N)C[C@H]3c3nn4ccc(Cl)c4c(=O)n3-c3cccc(F)c3)c12 [Compound 348, (3S,5S)-5-(5-chloro-3-(3-fluorophenyl)-4-oxo-3,4-dihydropyrrolo[2,1-f][1,2,4]triazin-2-yl)-1-(5-((S)-methylsulfinyl)-7H-pyrrolo[2,3-d]pyrimidin-4-yl)pyrrolidine-3-carbonitrile] | 51.2 | 75.6 | 6.51 | 96.9 | 7.41 | 
C[S@@+]([O-])c1c[nH]c2ncnc(N3C[C@@H](C#N)C[C@H]3c3nn4ccc(Cl)c4c(=O)n3-c3cccc(F)c3)c12 [Compound 349, (3S,5S)-5-(5-chloro-3-(3-fluorophenyl)-4-oxo-3,4-dihydropyrrolo[2,1-f][1,2,4]triazin-2-yl)-1-(5-((R)-methylsulfinyl)-7H-pyrrolo[2,3-d]pyrimidin-4-yl)pyrrolidine-3-carbonitrile] | 29.5 | 76.6 | 6.57 | 92.6 | 6.95 | 
N#Cc1c[nH]c2ncnc(N3C[C@@H](C#N)C[C@H]3c3nn4ccc(Cl)c4c(=O)n3-c3cccc(F)c3)c12 [Compound 350] | >100 | >100 | 8.40 | >100 | 9.00 | 7.46
N#Cc1cnc(N)nc1N1C[C@@H](C#N)C[C@H]1c1nn2ccc(Cl)c2c(=O)n1-c1ccccc1 [Compound 351] | 89.6 | 95.5 | 8.52 | >100 | 9.00 | 7.09
C[S+]([O-])c1n[nH]c2ncnc(N3CCC[C@H]3c3nn4ccc(Cl)c4c(=O)n3-c3ccccc3)c12 (stereo partly drawn) [Compound 352, 5-chloro-2-((2S)-1-(3-(methylsulfinyl)-1H-pyrazolo[3,4-d]pyrimidin-4-yl)pyrrolidin-2-yl)-3-phenylpyrrolo[2,1-f][1,2,4]triazin-4(3H)-one] | 40.7 | 97.2 | 7.96 | >100 | 7.47 | 
C[S+]([O-])c1n[nH]c2ncnc(N3CC[C@H]3c3nn4ccc(Cl)c4c(=O)n3-c3ccccc3)c12 (stereo partly shown) [Compound 353] | 14.6 | 79.2 | 6.65 | 33.8 |  | 
CC(O)c1cnc(N)nc1N1CC[C@H]1c1nn2ccc(Cl)c2c(=O)n1-c1ccccc1 (stereo partly drawn) [Compound 357, 2-((2S)-1-(2-amino-5-(1-hydroxyethyl)pyrimidin-4-yl)azetidin-2-yl)-5-chloro-3-phenylpyrrolo[2,1-f][1,2,4]triazin-4(3H)-one] | 5 | 66.2 |  | 37.9 |  | 
N#C[C@@H]1C[C@@H](c2nn3ccc(Cl)c3c(=O)n2-c2ccccc2)N(c2ncnc3[nH]cnc23)C1 [Compound 358, (3R,5S)-5-(5-chloro-4-oxo-3-phenyl-3,4-dihydropyrrolo[2,1-f][1,2,4]triazin-2-yl)-1-(9H-purin-6-yl)pyrrolidine-3-carbonitrile] | 62.0 | >100 | 7.18 | >100 | 7.77 | 6.57
N#C[C@H]1C[C@@H](c2nn3ccc(Cl)c3c(=O)n2-c2ccccc2)N(c2ncnc3[nH]cnc23)C1 [Compound 359] | 94.8 | >100 | 8.52 | >100 | 9.00 | 7.36
N#Cc1c[nH]c2ncnc(N3C[C@@H](C#N)C[C@H]3c3nn4ccc(Cl)c4c(=O)n3-c3ccccc3)c12 [Compound 360] | 95.3 | >100 | 8.30 | 99.2 | 9.00 | 7.92
N#C[C@H]1C[C@@H](c2nn3ccc(Cl)c3c(=O)n2-c2ccc(F)cc2)N(c2ncnc3[nH]cnc23)C1 [Compound 361] | 79.2 | >100 | 7.57 | 97.9 | 7.60 | 6.99
CCC(=O)c1cnc(N)nc1N1CC[C@H]1c1nn2ccc(Cl)c2c(=O)n1-c1ccccc1 [Compound 362] | 4.1 | 97.4 | 7.40 | 56.0 |  | 
O=c1c2c(Cl)ccn2cc(C2CCCN2c2ncnc3[nH]cnc23)n1-c1ccccc1 (stereo not shown) [Compound 363, 3-(1-(9H-purin-6-yl)pyrrolidin-2-yl)-8-chloro-2-phenylpyrrolo[1,2-a]pyrazin-1(2H)-one] | 68.3 | 98.3 | 7.57 | 97.5 | 8.22 | 
N#Cc1c[nH]c2ncnc(N3CCCC3c3cn4ccc(Cl)c4c(=O)n3-c3ccccc3)c12 (stereo not shown) [Compound 364] | 88.2 | >100 | 7.77 | 99.1 | 8.70 | 7.25
CS(=O)(=O)[C@H]1C[C@@H](c2nn3ccc(Cl)c3c(=O)n2-c2ccccc2)N(c2ncnc3[nH]cc(C#N)c23)C1 [Compound 365, 4-((2S,4S)-2-(5-chloro-4-oxo-3-phenyl-3,4-dihydropyrrolo[2,1-f][1,2,4]triazin-2-yl)-4-(methylsulfonyl)pyrrolidin-1-yl)-7H-pyrrolo[2,3-d]pyrimidine-5-carbonitrile] | 79.0 | 88.6 | 7.60 | 98.0 | 8.52 | 6.56
CS(=O)(=O)[C@H]1C[C@@H](c2nn3ccc(Cl)c3c(=O)n2-c2ccccc2)N(c2ncnc3[nH]cnc23)C1 [Compound 366] | 74.4 | 86.8 | 7.05 | 97.1 | 7.96 | 6.52
CC(=O)c1cnc(N)nc1N1CCC[C@H]1c1nn2ccc(Cl)c2c(=O)n1-c1ccccc1 [Compound 369, (S)-2-(1-(5-acetyl-2-aminopyrimidin-4-yl)pyrrolidin-2-yl)-5-chloro-3-phenylpyrrolo[2,1-f][1,2,4]triazin-4(3H)-one] | 68.8 | 90.4 | 8.52 | >100 | 8.70 | 6.62
N#Cc1c[nH]c2ncnc(N3CC[C@H]3c3nn4ccc(Cl)c4c(=O)n3CC3CC3)c12 [Compound 371, (S)-4-(2-(5-chloro-3-(cyclopropylmethyl)-4-oxo-3,4-dihydropyrrolo[2,1-f][1,2,4]triazin-2-yl)azetidin-1-yl)-7H-pyrrolo[2,3-d]pyrimidine-5-carbonitrile] | 17.5 | 74.4 | 6.50 | 89.8 | 7.15 | 
CS(=O)(=O)CCn1c([C@@H]2CCCN2c2ncnc3[nH]cnc23)nn2ccc(Cl)c2c1=O [Compound 372] | 42.6 | 87.7 | 6.53 | 84.8 | 7.00 | 
O=c1c2c(Cl)ccn2nc([C@@H]2CCCN2c2ncnc3[nH]cnc23)n1C1CCC1 [Compound 374] | 58.7 |  | 6.81 |  | 8.40 | 6.29
N#Cc1c[nH]c2ncnc(N3CC[C@H]3c3nn4ccc(Cl)c4c(=O)n3C3CCC3)c12 [Compound 375] | 32.9 | 65.7 |  | 92.6 | 7.37 | 
N#Cc1cnc(N)nc1N1CCC[C@H]1c1nn2ccc(Cl)c2c(=O)n1C1CCC1 [Compound 376] | 54.8 | 93.2 | 7.59 | 99.1 | 8.22 | 
Cc1nc(N)nc(N2CC[C@H]2c2nn3ccc(Cl)c3c(=O)n2-c2ccccc2)c1Cl [Compound 377, (S)-2-(1-(2-amino-5-chloro-6-methylpyrimidin-4-yl)azetidin-2-yl)-5-chloro-3-phenylpyrrolo[2,1-f][1,2,4]triazin-4(3H)-one] | 39.8 | 96.3 | 7.35 | 98.0 | 7.47 | 
COc1nc(N)nc(N2CC[C@H]2c2nn3ccc(Cl)c3c(=O)n2-c2ccccc2)c1C#N [Compound 378, (S)-2-amino-4-(2-(5-chloro-4-oxo-3-phenyl-3,4-dihydropyrrolo[2,1-f][1,2,4]triazin-2-yl)azetidin-1-yl)-6-methoxypyrimidine-5-carbonitrile] | 34.5 | >100 | 6.75 | 87.2 | 6.66 | 
Nc1nc2c(c(N3CC[C@H]3c3nn4ccc(Cl)c4c(=O)n3-c3ccccn3)n1)C(=O)CCN2 [Compound 379] | 14.5 |  | 7.46 |  | 7.23 | 
N#Cc1c[nH]c2ncnc(N3CC(=O)C[C@H]3c3nn4ccc(Cl)c4c(=O)n3-c3ccccc3)c12 [Compound 380, (S)-4-(2-(5-chloro-4-oxo-3-phenyl-3,4-dihydropyrrolo[2,1-f][1,2,4]triazin-2-yl)-4-oxopyrrolidin-1-yl)-7H-pyrrolo[2,3-d]pyrimidine-5-carbonitrile] | 87.8 | >100 | 8.00 | 98.0 | 9.00 | 7.19
